From patent US20110195979A1, “COMPOUNDS FOR THE TREATMENT AND PREVENTION OF INFLUENZA” (priority 2010, published 2011)

Columns and labels:
MDCK cells = experiment: in vitro; details: dog, Cytotoxicy IC50
Influenza H1N1 virus = experiment: Viral cytopathic effect (CPE) assay; format: cell-based, Influenza A (H1N1); details: Influenza A virus, H1N1, MDCK, 72 h, read-out: CPE_EC50
Method: Cells and viruses. Madin-Darby canine kidney cell (MDCK) was purchased from American type culture collection (ATCC) and was maintained in minimal essential medium (MEM) containing 10% fetal bovine serum and antibiotics. Influenza A/Weiss/43 (H1N1), A/PR/8/34 (H1N1), and A/Hongkong/8/68 (H3N2) were purchased from ATCC and propagated in 10-day-old embryonated chicken eggs at 37° C. Virus was harvested 48 h after inoculation as pooled allantoic fluid. After a brief centrifugation (3,000 rpm at room temperature for 20 min) and virus titer measurement by a hemagglutination test, virus was aliquoted and stored at a −80° C. freezer.
Viral cytopathic effect (CPE) assay: To measure anti-influenza activity of compounds, MDCK cells were seeded into 96-well plates at a density of 5,000 cells per well. Next day, compounds were serially half-log diluted with Gibco SFM containing trypsin. Compounds and 50 pfu of virus were added into corresponding wells to make m.o.i at 0.01 and a final trypsin concentration of 2.5 μg/ml. The testing plates also contained medium control, cell control, virus control, and compound toxicity control. After a 3-day treatment, cell viability was measured with a MTT (3-(4,5-dimethylthiazol-2-yl)-2,5-diphenyltetrazolium bromide) method. Briefly, 20 μl of MTT diluted in culture medium was added into each wells and incubated at 37° C. for 4 hours. Reduced MTT (formazan) was extracted with acidic isopropanol and absorbance at wavelengths of 570 nm and 630 nm (OD570 and OD630) was read on a microtiter plate reader. After subtraction of background OD values, dose response curves of half-log concentration vs. percent protection were generated, on which half maximal effective concentration (EC50) and half maximal toxic concentration (CC50) were calculated.

Row | Compound | IC50 at 3 day (MDCK cells) | EC50 (Influenza H1N1 virus)
1 | CC1(C)CC(O)CC(C)(CNc2ncccc2C(F)(F)F)C1 (stereo not drawn) [Example IIIa-5, (cis-1,5)-3,3,5-Trimethyl-5-[(3-trifluoromethyl-pyridin-2-ylamino)-methyl]-cyclohexanol] | 22100 nM | < 159 nM
2 | CC1(C)CC(O)CC(C)(CNc2cc(S(N)(=O)=O)ccn2)C1 (stereo not drawn) [Example IIIa-8, 2-[((cis-1,5)-5-Hydroxy-1,3,3-trimethyl-cyclohexylmethyl)-amino]-pyridine-4-sulfonic acid amide] | > 100000 nM | 980 nM
3 | CC1(C)CC(O)CC(C)(CNc2nccc(C(F)(F)F)n2)C1 (stereo not drawn) [Example IIIa-10, (cis-1,5)-3,3,5-Trimethyl-5-[(4-trifluoromethyl-pyrimidin-2-ylamino)-methyl]-cyclohexanol] | 47800 nM | 120 nM
4 | COc1ccnc(NCC2(C)CC(O)CC(C)(C)C2)n1 (stereo not drawn) [Example IIIa-11, (cis-1,3)-3-[(4-Methoxy-pyrimidin-2-ylamino)-methyl]-3,5,5-trimethyl-cyclohexanol] | > 50000 nM | 1500 nM
5 | Cc1cc(C)nc(NCC2(C)CC(O)CC(C)(C)C2)n1 (stereo not drawn) [Example IIIa-13, (cis-1,3)-3-[(4,6-Dimethyl-pyrimidin-2-ylamino)-methyl]-3,5,5-trimethyl-cyclohexanol] | > 100000 nM | 1370 nM
6 | CC1(C)CC(O)CC(C)(CNc2cncc(Cl)n2)C1 (stereo not drawn) [Example IIIb-1, (cis-1,3)-3-[(6-Chloro-pyrazin-2-ylamino)-methyl]-3,5,5-trimethyl-cyclohexanol] | > 50000 nM | 4120 nM
7 | CC1(C)CC(O)CC(C)(CNc2nc3ccccc3o2)C1 (stereo not drawn) [Example IIIc-1, (cis-1,3)-3-(Benzoxazol-2-ylaminomethyl)-3,5,5-trimethyl-cyclohexanol] | 83000 nM | 1420 nM
8 | CC1(C)CC(F)(F)CC(C)(CNc2nc3ccccc3o2)C1 (stereo not drawn) [Example IIIc-2, Benzoxazol-2-yl-(3,3-difluoro-1,5,5-trimethyl-cyclohexylmethyl)-amine] | 10900 nM | 3360 nM
9 | COC1CC(C)(C)CC(C)(CNc2nc3ccccc3o2)C1 (stereo not drawn) [Example IIIc-3, Benzoxazol-2-yl-((cis-1,5)-5-methoxy-1,3,3-trimethyl-cyclohexylmethyl)-amine] | > 50000 nM | 7430 nM
10 | CC1(C)CC(O)CC(C)(CNc2noc3ccccc23)C1 (stereo not drawn) [Example IIId-1, (cis-1,3)-3-(Benzo[d]isoxazol-3-ylaminomethyl)-3,5,5-trimethyl-cyclohexanol] | > 50000 nM | 400 nM
11 | CC1(C)CC(O)CC(C)(CNc2nccc3ccccc23)C1 (stereo not drawn) [Example IIIf-1, (cis-1,3)-3-(Isoquinolin-1-ylaminomethyl)-3,5,5-trimethyl-cyclohexanol] | 43700 nM | 2370 nM
12 | COc1cccc(NCC2(C)CC(O)CC(C)(C)C2)c1 (stereo not drawn) [Example IIa-8, (cis-1,3)-3-[(3-Methoxy-phenylamino)-methyl]-3,5,5-trimethyl-cyclohexanol] | > 50000 nM | 200 nM
13 | CC(C)c1cccc(NCC2(C)CC(O)CC(C)(C)C2)c1 (stereo not drawn) [Example IIa-12, (cis-1,3)-3-[(3-Isopropyl-phenylamino)-methyl]-3,5,5-trimethyl-cyclohexanol] | 6680 nM | 90 nM
14 | CC1(C)CC(O)CC(C)(CNc2cc(F)cc(C(F)(F)F)c2)C1 (stereo not drawn) [Example IIa-17, (cis-1,3)-3-[(3-Fluoro-5-trifluoromethyl-phenylamino)-methyl]-3,5,5-trimethyl-cyclohexanol] | 3660 nM | 18 nM
15 | Cc1cc(Cl)cc(NCC2(C)CC(O)CC(C)(C)C2)c1 (stereo not drawn) [Example IIa-18, (cis-1,3)-3-[(3-Chloro-5-methyl-phenylamino)-methyl]-3,5,5-trimethyl-cyclohexanol] | > 3160 nM | 25 nM
16 | CC1(C)CC(O)CC(C)(CNc2cc(Cl)cc(Cl)c2)C1 (stereo not drawn) [Example IIa-19, (cis-1,3)-3-[(3,5-Dichloro-phenylamino)-methyl]-3,5,5-trimethyl-cyclohexanol] | 7190 nM | 32 nM
17 | CC1(C)CC(O)CC(C)(CNc2cc(Br)cc(C(F)(F)F)c2)C1 (stereo not drawn) [Example IIa-21, (cis-1,3)-3-[(3-Bromo-5-trifluoromethyl-phenylamino)-methyl]-3,5,5-trimethyl-cyclohexanol] | > 3160 nM | 58 nM

Row | Compound | IC50 at 3 day (MDCK cells) | EC50 (Influenza H1N1 virus)
18 | CC1(C)CC(O)CC(C)(CNc2cc(F)cc(C#N)c2)C1 (stereo not drawn) [Example IIa-22, 3-Fluoro-5-[((cis-1,5)-5-hydroxy-1,3,3-trimethyl-cyclohexylmethyl)-amino]-benzonitrile] | 23900 nM | 50 nM
19 | CC1(C)CC(O)CC(C)(CNc2cc(C#N)cc(C(F)(F)F)c2)C1 (stereo not drawn) [Example IIa-24, 3-[((cis-1,5)-5-Hydroxy-1,3,3-trimethyl-cyclohexylmethyl)-amino]-5-trifluoromethyl-benzonitrile] | 13200 nM | 40 nM
20 | CC1(C)CC(O)CC(C)(CNc2cc(C(F)(F)F)cc(C(F)(F)F)c2)C1 (stereo not drawn) [Example IIa-25, (cis-1,3)-3-[(3,5-Bis-trifluoromethyl-phenylamino)-methyl]-3,5,5-trimethyl-cyclohexanol] | 2830 nM | 95 nM
21 | CC1(C)CC(O)CC(C)(CNc2ccc(Cl)c(Cl)c2)C1 (stereo not drawn) [Example IIa-27, (cis-1,3)-3-[(3,4-Dichloro-phenylamino)-methyl]-3,5,5-trimethyl-cyclohexanol] | 2490 nM | 68 nM
22 | CN(CC1(C)CC(O)CC(C)(C)C1)c1cccc(Cl)c1 (stereo not drawn) [Example IIb-1, (cis-1,3)-3-{[(3-Chloro-phenyl)-methyl-amino]-methyl}-3,5,5-trimethyl-cyclohexanol] | 7580 nM | 600 nM
23 | CC1(C)CCCC(C)(CNc2cc(F)cc(C(F)(F)F)c2)C1 (stereo not drawn) [Example IIc-1, (3-Fluoro-5-trifluoromethyl-phenyl)-(1,3,3-trimethyl-cyclohexylmethyl)-amine] | 2320 nM | 237 nM
24 | CC(=O)OC1CC(C)(C)CC(C)(CNc2ccccc2)C1 (stereo not drawn) [Example IId-1, Acetic acid (cis-1,5)-3,3,5-trimethyl-5-phenylaminomethyl-cyclohexyl ester] | 64400 nM | 492 nM
25 | CC1(C)CC(F)(F)CC(C)(CNc2cc(F)cc(C(F)(F)F)c2)C1 (stereo not drawn) [Example IIe-1, (3,3-Difluoro-1,5,5-trimethyl-cyclohexylmethyl)-(3-fluoro-5-trifluoromethyl-phenyl)-amine] | > 3160 nM | 264 nM
26 | COC1CC(C)(C)CC(C)(CNc2cc(F)cc(C(F)(F)F)c2)C1 (stereo not drawn) [Example IIf-1, (3-Fluoro-5-trifluoromethyl-phenyl)-((cis-1,5)-5-methoxy-1,3,3-trimethyl-cyclohexylmethyl)-amine] | > 3160 nM | 129 nM
27 | CC1(C)CC(C)(O)CC(C)(CNc2cc(F)cc(C(F)(F)F)c2)C1 (stereo not drawn) [Example IIg-1, (cis-1,3)-3-[(3-Fluoro-5-trifluoromethyl-phenylamino)-methyl]-1,3,5,5-tetramethyl-cyclohexanol] | > 3160 nM | 89 nM
28 | CN(C)C1CC(C)(C)CC(C)(CNc2cc(F)cc(C(F)(F)F)c2)C1 (stereo not drawn) [Example IIh-1, ((cis-1,5)-5-Dimethylamino-1,3,3-trimethyl-cyclohexylmethyl)-(3-fluoro-5-trifluoromethyl-phenyl)-amine] | 8390 nM | 1700 nM
29 | CC1(C)CC(O)CC(C)(C(=O)Nc2cccc(Cl)c2)C1 (stereo not drawn) [Example IVa-3, (cis-1,5)-5-Hydroxy-1,3,3-trimethyl-cyclohexanecarboxylic acid(3-chloro-phenyl)-amide] | 82100 nM | 460 nM
30 | CC1(C)CC(O)CC(C)(C(=O)Nc2cccc(C(F)(F)F)c2)C1 (stereo not drawn) [Example IVa-4, (cis-1,5)-5-Hydroxy-1,3,3-trimethyl-cyclohexanecarboxylic acid(3-trifluoromethyl-phenyl)-amide] | 68300 nM | 340 nM
31 | CC(C)c1cccc(NC(=O)C2(C)CC(O)CC(C)(C)C2)c1 (stereo not drawn) [Example IVa-5, (cis-1,5)-5-Hydroxy-1,3,3-trimethyl-cyclohexanecarboxylic acid(3-isopropyl-phenyl)-amide] | 21600 nM | 1040 nM
32 | CC1(C)CC(O)CC(C)(C(=O)Nc2cccc(OC(F)(F)F)c2)C1 (stereo not drawn) [Example IVa-8, (cis-1,5)-5-Hydroxy-1,3,3-trimethyl-cyclohexanecarboxylic acid(3-trifluoromethoxy-phenyl)-amide] | 60000 nM | 861 nM
33 | CC1(C)CC(O)CC(C)(C(=O)Nc2cccc(S(N)(=O)=O)c2)C1 (stereo not drawn) [Example IVa-10, (cis-1,5)-5-Hydroxy-1,3,3-trimethyl-cyclohexanecarboxylic acid(3-sulfamoyl-phenyl)-amide] | > 100000 nM | 7960 nM
